Series [1] concerns XO. On the set-up: method as in earlier work. Conditions: XO inhibition; cited from earlier work.
The target of series [2] is T1, xanthine oxidase from bovine milk (Bos taurus, UniProt P80457).
T1 construct: xanthine oxidase from bovine milk; purchased Sigma-Aldrich Chemical Co., St. Louis, MO; host or cells: bovine milk (natural source)
The experiment in a line: Inhibition of xanthine oxidase (XO) activity, uric acid formed from xanthine, absorbance at 290 nm. It is filed as biochemical. Conditions: for IC50: value of x when y = 50 from straight line equation of XOI % vs concentration; for inhibition at 45 µM: read-out: Xanthine oxidase inhibition (XOI %).
Protocol: Inhibition of XO activity was assessed by measuring the uric acid formed from the xanthine substrate. Solutions of xanthine in various concentrations in a 0.1 M, pH 7.4 phosphate buffer were incubated together with 100 μl of ethanol and the same volume of samples of the solutions with different concentrations (45 and 90 μM in a 0.1 M, pH 7.4 phosphate buffer). The samples were pre-incubated at 37 °C for 10 min. The XO solution (0.3 ml, 0.1 U/ml) was added to the reaction mixture and the flasks were incubated at 37 °C for 20 min. The enzymatic reaction was interrupted by adding 25 μl of 3.2% HCl. The absorption of the samples was measured using an ELISA reader Epoch, BioTek (Winooski, VT) at 290 nm. The uric acid production was calculated from the differential absorbance with a blank solution without xanthine oxidase. The control was a solution containing xanthine and XO.
Vmax (maximum reaction rate) and Km (Michaelis–Menten constant, that is the substrate concentration at 1/2 the maximum reaction rate) were calculated and the type of inhibition kinetics was identified using the Origin 8.6 program and the rectangular hyperbola model. […] Reaction rate (expressed as uric acid concentration in μmol/min) was obtained from the uric acid standard curve (y = 0.024x − 0.1242, R^2 = 0.9786).

Series [3] in a line: Partition coefficient determination in octanol/water (k). The class given is physicochemical. As to conditions: octan-1-ol/water, 50 μM sample, UHPLC-MS; SD <0.01. As for the experimental part: The partition coefficients of the untreated flavonoids in octanol/water (k) were analysed to determine their degrees of lipophilicity. In test tubes, 2.0 ml of a solution of the sample with a concentration of 50 μM were added to 2.0 ml of octanol saturated with water. The mixture was shaken for 1 min and then centrifuged for 15 min at 3000 rpm. […] The partition coefficient was obtained using the equation: k=Co/Ca×r; where Co = test compound concentration in octanol, Ca = test compound concentration in aqueous solution, r = ratio of the volumes of the oily and the aqueous phases.

Series [4] has as its system XO. Details: method as in PMID 12231379. As to conditions: XO inhibition; cited from earlier work.
Setting [5] is: inhibitor at 45 μM, 250 μM of xanthine substrate, derivatives after 12 h of enzymatic acylation.

This is an account of results in article PMC6445226, “Kinetic study on the inhibition of xanthine oxidase by acylated derivatives of flavonoids synthesised enzymatically” (Journal of Enzyme Inhibition and Medicinal Chemistry, 2017).

For orientation: IC50 means the concentration that gives 50% inhibition. By inhibition is commonly meant the percentage by which the read-out fell short of the control.

Read-outs that look alike come from different tables or passages of the source.

T1 sequence (P80457 whole entry): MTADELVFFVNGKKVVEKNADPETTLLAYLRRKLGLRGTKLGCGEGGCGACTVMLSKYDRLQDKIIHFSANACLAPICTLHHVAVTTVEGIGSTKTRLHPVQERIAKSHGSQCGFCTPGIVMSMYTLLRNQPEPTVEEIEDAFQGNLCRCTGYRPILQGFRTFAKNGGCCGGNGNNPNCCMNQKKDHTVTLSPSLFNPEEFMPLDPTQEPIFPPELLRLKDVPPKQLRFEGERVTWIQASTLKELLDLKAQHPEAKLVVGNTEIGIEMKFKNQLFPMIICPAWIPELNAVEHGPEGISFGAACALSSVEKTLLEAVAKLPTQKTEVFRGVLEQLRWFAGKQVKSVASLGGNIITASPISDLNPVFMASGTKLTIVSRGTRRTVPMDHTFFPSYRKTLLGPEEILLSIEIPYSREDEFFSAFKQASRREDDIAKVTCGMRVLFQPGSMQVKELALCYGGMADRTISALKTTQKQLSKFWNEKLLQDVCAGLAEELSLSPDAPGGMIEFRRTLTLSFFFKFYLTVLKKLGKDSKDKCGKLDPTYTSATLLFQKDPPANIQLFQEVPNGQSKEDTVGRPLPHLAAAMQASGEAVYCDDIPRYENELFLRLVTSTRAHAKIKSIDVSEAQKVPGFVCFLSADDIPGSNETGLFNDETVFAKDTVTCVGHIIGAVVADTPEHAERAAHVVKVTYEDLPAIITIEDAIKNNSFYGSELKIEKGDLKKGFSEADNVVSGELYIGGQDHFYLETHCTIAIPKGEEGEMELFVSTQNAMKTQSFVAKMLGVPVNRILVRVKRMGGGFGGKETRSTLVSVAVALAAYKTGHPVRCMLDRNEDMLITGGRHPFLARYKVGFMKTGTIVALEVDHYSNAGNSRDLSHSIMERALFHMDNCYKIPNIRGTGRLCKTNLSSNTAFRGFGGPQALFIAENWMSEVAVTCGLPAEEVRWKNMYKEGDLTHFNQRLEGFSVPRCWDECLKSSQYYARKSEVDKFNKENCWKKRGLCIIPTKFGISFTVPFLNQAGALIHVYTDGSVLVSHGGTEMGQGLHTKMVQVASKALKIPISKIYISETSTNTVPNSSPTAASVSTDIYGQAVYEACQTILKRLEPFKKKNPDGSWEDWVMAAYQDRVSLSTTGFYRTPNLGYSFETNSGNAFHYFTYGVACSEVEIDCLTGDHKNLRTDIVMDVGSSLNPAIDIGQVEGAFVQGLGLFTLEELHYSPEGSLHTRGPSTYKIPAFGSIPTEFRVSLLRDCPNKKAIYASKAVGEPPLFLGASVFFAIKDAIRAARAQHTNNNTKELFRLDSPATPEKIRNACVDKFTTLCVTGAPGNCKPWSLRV

For the compound isoquercitrin butyrate, the IC50 in the series with XO [1] is 144 µM.
On to isoquercitrin oleate, for which, in the series with XO [1], the IC50 was 27 µM.
Regarding Naringin octanoate, the “Xanthine oxidase inhibition (XOI %)” value in series [2] (setting [5]) was determined as 28.80 ± 5.76%. Further, the half-maximal inhibitory concentration (IC50) in series [2] came out at 110 µM.
As to `C[C@@H]1O[C@@H](O[C@H]2[C@H](Oc3cc(O)c4c(c3)O[C@H](c3ccc(O)cc3)CC4=O)O[C@H](CO)[C@@H](O)[C@@H]2O)[C@H](O)[C@H](O)[C@H]1O` [Naringin, naringin], in series [3], the “Partition coefficient (k)” value is 0.37. Further, the inhibition at 45 µM in series [2] (setting [5]) turned out to be 14.8 ± 4.8%. This compound also returned an IC50 in series [2] of 206 µM.
Hesperidin decanoate: the “Partition coefficient (k)” value in series [3] was found to be 0.83. Also, in series [2] (setting [5]), the “Xanthine oxidase inhibition (XOI %)” value was 16.42 ± 3.21%. Further, the IC50 in series [2] worked out at 199 µM.
On to `O=c1c(O)c(-c2ccc(O)cc2O)oc2cc(O)cc(O)c12` [morin], for which the IC50 in the series with XO [4] is 40 µM.
For `C[C@@H]1O[C@@H](OC[C@H]2O[C@@H](Oc3c(-c4ccc(O)c(O)c4)oc4cc(O)cc(O)c4c3=O)[C@H](O)[C@@H](O)[C@@H]2O)[C@H](O)[C@H](O)[C@H]1O` [Rutin, rutin], the “Partition coefficient (k)” value in series [3] worked out at 0.48.
Consider Naringin decanoate, for which, in series [3], the “Partition coefficient (k)” value came out at 0.86. Also, the “Xanthine oxidase inhibition (XOI %)” value in series [2] (setting [5]) is recorded as 25.61 ± 2.85%. Moreover, the IC50 in series [2] worked out at 118 µM.
As for isoquercitrin stearate, the IC50 with XO [1] is 61 µM.
For `COc1ccc([C@@H]2CC(=O)c3c(O)cc(O[C@@H]4O[C@H](CO[C@@H]5O[C@@H](C)[C@H](O)[C@@H](O)[C@H]5O)[C@@H](O)[C@H](O)[C@H]4O)cc3O2)cc1O` [Hesperidin, hesperidin], in series [3], the “Partition coefficient (k)” value is 0.42. For the same compound, the “Xanthine oxidase inhibition (XOI %)” value in series [2] (setting [5]) amounted to 8.24 ± 2.10%. Further, the midpoint of inhibition in series [2], the IC50, lay at 333 µM.
Turning to `O=c1c(O)c(-c2ccc(O)cc2)oc2cc(O)cc(O)c12` [kaempferol], the IC50 in the series on XO [4] was 2.5 µM.
Consider `Oc1ncnc2[nH]ncc12` [Allopurinol, allopurinol], for which the inhibition at 45 µM in series [2] was determined as 89.7%.
Turning to `O=c1c(O)c(-c2ccc(O)c(O)c2)oc2cc(O)cc(O)c12` [Quercetin, quercetin], in series [3], the “Partition coefficient (k)” value is recorded as 1.46.
